Experimental findings from PubChem BioAssay (NCI) are described below.

The structures appear in SMILES notation.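 Cultured in 96-well plates, cells were exposed to test compound for 48 hours across five concentrations. Here, GI50 denotes the concentration required for 50% inhibition of growth. The concentration for full growth arrest is given as TGI.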 Where only a bound is given, the exact number is not on record here.

Test systems include DMS 114 small cell lung; LXFL 529 NSCLC; SNB-78 CNS; DLD-1 colon; RXF-631 renal; HOP-18 NSCLC; KM20L2 colon.
What all share (test): DTP human tumour cell line panel, 48 h

The TGI is the concentration at which net growth stops. A higher TGI goes with less potent growth arrest. Regarding `O=S(O)c1cc(Cl)cc(Cl)c1OCc1ccccc1`, the TGI with DMS 114 small cell lung, with LXFL 529 NSCLC, with SNB-78 CNS, with DLD-1 colon and in the assay with RXF-631 renal was more than 100 µM throughout.

In the case of `Cc1ccc(SSCCCCCS(=O)O)cc1`, the TGI was 45.2 µM in the assay on DMS 114 small cell lung; 28.5 µM in the assay on LXFL 529 NSCLC; 82.1 µM in the assay on SNB-78 CNS; more than 100 µM in the assay on DLD-1 colon; more than 100 µM in the assay on RXF-631 renal.

As usually defined, the GI50 is the concentration at which growth is held to half of that of the control. With `N#C[S-].[Ce+3].c1cnc2c(c1)ccc1cccnc12.c1cnc2c(c1)ccc1cccnc12.c1cnc2c(c1)ccc1cccnc12`, the GI50 with DMS 114 small cell lung was 1.64 µM; in the assay on HOP-18 NSCLC it was 1.2 µM; in the assay on LXFL 529 NSCLC, 2.3 µM; in the assay on KM20L2 colon, 1.33 µM. Besides, the TGI with DMS 114 small cell lung was found to be 4.52 µM; in the assay on HOP-18 NSCLC, 7.53 µM; with LXFL 529 NSCLC, 24.6 µM; with KM20L2 colon, 14.7 µM.
